In PMC3556037, “Stimulation of Inositol 1,4,5-Trisphosphate (IP3) Receptor Subtypes by Analogues of IP3” (PLoS ONE, 2013):
pEC50: −log10 of the molar value. Read-outs that look alike come from different tables or passages of the source.

Assays:
Test in all cases: Ca2+ release from ER of permeabilized DT40 cells, luminal Mag fluo-4
IP3R2 = target: T1, IP3R2 (Mus musculus, UniProt Q9Z329); assay type: cell-based
T1 construct: gene Itpr2; full-length, homotetramer, stably expressed in DT40 cells lacking all endogenous IP3R; saponin-permeabilized cells
Text: Ca2+ release from ER of permeabilized DT40 cells, luminal Mag fluo-4 on IP3R2

IP3R3 [1] = target: T2, IP3R3 (Rattus norvegicus, UniProt Q63269); assay type: cell-based
T2 construct: gene Itpr3; full-length, homotetramer, stably expressed in DT40 cells lacking all endogenous IP3R; saponin-permeabilized cells
T2 sequence (Q63269 whole entry): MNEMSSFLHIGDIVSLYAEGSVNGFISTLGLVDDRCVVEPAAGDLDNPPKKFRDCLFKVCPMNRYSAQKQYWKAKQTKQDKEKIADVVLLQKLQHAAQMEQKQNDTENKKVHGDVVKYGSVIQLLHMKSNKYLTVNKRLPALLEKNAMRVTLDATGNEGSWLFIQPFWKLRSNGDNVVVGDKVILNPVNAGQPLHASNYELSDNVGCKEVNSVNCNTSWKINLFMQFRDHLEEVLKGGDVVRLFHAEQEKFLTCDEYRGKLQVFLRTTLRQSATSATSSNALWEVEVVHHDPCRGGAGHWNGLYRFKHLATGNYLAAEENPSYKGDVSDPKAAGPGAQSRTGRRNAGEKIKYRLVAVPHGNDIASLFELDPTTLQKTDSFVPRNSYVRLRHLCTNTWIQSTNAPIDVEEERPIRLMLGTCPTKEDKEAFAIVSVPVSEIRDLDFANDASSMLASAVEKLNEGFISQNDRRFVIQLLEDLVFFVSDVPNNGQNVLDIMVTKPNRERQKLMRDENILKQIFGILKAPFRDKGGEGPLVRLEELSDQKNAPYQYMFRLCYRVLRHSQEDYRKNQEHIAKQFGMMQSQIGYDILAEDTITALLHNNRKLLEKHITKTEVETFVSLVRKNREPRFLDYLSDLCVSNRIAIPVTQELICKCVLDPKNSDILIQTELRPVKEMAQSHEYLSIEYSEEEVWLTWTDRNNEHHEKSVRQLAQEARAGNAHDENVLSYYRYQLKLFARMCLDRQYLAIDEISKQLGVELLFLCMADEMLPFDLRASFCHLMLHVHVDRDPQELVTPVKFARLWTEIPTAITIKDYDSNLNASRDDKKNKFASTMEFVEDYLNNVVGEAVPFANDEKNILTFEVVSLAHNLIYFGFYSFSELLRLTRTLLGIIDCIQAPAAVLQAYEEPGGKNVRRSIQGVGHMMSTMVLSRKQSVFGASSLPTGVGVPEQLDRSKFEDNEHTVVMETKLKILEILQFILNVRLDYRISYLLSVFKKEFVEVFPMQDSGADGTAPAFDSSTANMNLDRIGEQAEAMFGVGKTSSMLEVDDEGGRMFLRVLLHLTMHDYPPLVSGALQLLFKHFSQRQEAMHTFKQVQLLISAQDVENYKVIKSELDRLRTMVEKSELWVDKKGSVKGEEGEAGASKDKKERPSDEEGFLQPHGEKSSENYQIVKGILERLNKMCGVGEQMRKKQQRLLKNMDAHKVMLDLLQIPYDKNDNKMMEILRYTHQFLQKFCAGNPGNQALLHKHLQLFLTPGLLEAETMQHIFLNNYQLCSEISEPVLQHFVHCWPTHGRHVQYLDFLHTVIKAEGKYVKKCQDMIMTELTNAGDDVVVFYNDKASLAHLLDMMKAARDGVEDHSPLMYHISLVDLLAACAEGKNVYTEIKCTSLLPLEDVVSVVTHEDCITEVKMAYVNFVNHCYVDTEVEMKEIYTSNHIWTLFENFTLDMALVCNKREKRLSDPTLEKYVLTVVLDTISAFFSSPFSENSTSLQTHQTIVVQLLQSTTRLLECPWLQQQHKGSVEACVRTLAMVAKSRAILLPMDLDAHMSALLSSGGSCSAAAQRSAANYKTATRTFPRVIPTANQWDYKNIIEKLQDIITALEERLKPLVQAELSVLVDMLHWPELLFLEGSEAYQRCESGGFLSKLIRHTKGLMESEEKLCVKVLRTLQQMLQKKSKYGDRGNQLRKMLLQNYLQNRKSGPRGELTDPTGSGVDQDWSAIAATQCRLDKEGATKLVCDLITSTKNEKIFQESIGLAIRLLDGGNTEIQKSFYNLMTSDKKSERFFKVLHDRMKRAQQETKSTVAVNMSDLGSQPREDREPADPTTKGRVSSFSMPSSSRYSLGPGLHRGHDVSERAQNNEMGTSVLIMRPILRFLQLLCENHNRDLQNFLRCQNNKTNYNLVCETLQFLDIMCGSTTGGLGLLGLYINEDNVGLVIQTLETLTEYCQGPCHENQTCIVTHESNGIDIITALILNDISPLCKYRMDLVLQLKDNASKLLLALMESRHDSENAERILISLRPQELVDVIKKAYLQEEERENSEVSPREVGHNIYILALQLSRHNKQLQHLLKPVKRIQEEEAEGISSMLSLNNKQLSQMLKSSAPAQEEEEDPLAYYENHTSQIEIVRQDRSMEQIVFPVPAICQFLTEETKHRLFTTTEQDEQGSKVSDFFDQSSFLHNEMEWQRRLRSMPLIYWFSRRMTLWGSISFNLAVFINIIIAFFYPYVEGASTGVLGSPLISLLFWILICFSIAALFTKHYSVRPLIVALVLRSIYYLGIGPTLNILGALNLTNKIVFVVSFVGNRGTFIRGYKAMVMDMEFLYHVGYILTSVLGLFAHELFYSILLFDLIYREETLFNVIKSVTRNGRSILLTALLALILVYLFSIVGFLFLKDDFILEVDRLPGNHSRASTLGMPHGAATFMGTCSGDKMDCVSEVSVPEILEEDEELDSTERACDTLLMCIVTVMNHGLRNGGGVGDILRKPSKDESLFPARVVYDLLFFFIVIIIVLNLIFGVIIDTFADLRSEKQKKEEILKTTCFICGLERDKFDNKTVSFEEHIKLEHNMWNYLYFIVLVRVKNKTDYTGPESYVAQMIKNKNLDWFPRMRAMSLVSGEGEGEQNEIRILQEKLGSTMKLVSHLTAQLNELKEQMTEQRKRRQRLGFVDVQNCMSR
Text: (§1) Ca2+ release from ER of permeabilized DT40 cells, luminal Mag fluo-4 on IP3R3

IP3R3 [2] = target: T2, IP3R3; assay type: biochemical
Text: as §1

[3] = 100 µM, 1.5 mM MgATP, free Ca2+ ~220 nM, pH 7, 20 °C, thapsigargin 1 µM, unreliable: paper suspects minor contamination by active IP3

| Structure (SMILES) | pEC50 (IP3R2) | pEC50 (IP3R3 [1]) | pEC50 (IP3R3 [2]) | IP3R2 / Ca^2+release (%) (IP3R2; [3]) | IP3R3 / Ca^2+release (%) (IP3R3 [1]; [3]) |
| --- | --- | --- | --- | --- | --- |
| O=P(O)(O)O[C@@H]1[C@@H](O)[C@H](OP(=O)(O)O)[C@H](O)C[C@H]1OP(=O)(O)O [3-deoxy(1,4,5)IP3] | 5.23 |  | 4.80 |  |  |
| O=P(O)(O)O[C@H]1[C@H](O)[C@@H](O)[C@H](OP(=O)(O)O)[C@@H](OP(=O)(O)O)[C@H]1O [(1,3,4)IP3] |  |  |  | 18±6 | 2±1 |
| O=P(O)(O)O[C@@H]1[C@@H](O)[C@@H](O)[C@@H](OP(=O)(O)O)[C@H](OP(=O)(O)O)[C@H]1O [(1,4,6)IP3] | 4.90 | 4.80 |  |  |  |
| O=P(O)(O)O[C@@H]1[C@@H](O)[C@H](O)[C@H](O)[C@H](O)[C@H]1OP(=O)(O)O [(4,5)IP2] | 5.20 | 4.94 |  |  |  |

More lines, in order of rising pEC50 (IP3R2), values ahead:

| pEC50 (IP3R2) | pEC50 (IP3R3 [1]) | pEC50 (IP3R3 [2]) | IP3R2 / Ca^2+release (%) (IP3R2; [3]) | IP3R3 / Ca^2+release (%) (IP3R3 [1]; [3]) | Structure (SMILES) |
| --- | --- | --- | --- | --- | --- |
| 6.15 |  | 5.76 |  |  | CN(C)c1ccc(C(=C2C=CC(=[N+](C)C)C=C2)c2ccc(C(=O)NCCCOP(=O)(O)O[C@@H]3[C@H](O)[C@H](O)[C@@H](OP(=O)(O)O)[C@H](OP(=O)(O)O)[C@H]3O)cc2)cc1 [MG(1,4,5)IP3] |
| 6.84 | 6.38 |  |  |  | O=P(O)(O)O[C@@H]1[C@H](O)[C@H](O)[C@@H](OP(=O)(O)O)[C@H](OP(=O)(O)O)[C@H]1O [(1,4,5)IP3] |
| 6.94 | 6.49 |  |  |  | O=P(O)(O)O[C@@H]1[C@@H](O)[C@H](OP(=O)(O)O)C[C@H](O)[C@H]1OP(=O)(O)O [2-deoxy(1,4,5)IP3] |
